Experiments:
Assay in all cases: relative viability (nuclei count vs DMSO), 5 days (fraction); higher = more cells survive
Omipalisib + Navitoclax = compound: COc1ncc(-c2ccc3nccc(-c4ccnnc4)c3c2)cc1NS(=O)(=O)c1ccc(F)cc1F [Omipalisib] + CC1(C)CCC(c2ccc(Cl)cc2)=C(CN2CCN(c3ccc(C(=O)NS(=O)(=O)c4ccc(N[C@H](CCN5CCOCC5)CSc5ccccc5)c(S(=O)(=O)C(F)(F)F)c4)cc3)CC2)C1 [Navitoclax] (partner 0.5 µM)
Method in brief: (§1)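 Lung cancer cell lines were seeded in 1536-well plates and dosed by pin tool the next day, with either a single drug or a fixed anchor-drug dose combined with five library-drug doses (not always all listed) spaced in √10 steps. Five days later, one step fixed the cells and stained their nuclei (final 0.05% Triton X-100, 1% formaldehyde, 1 ug/ml Hoechst), and nuclei were counted on 4× images. Relative viability is the nuclei count in treated wells divided by the count in vehicle wells, and each value is the median of duplicate plates.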

Omipalisib + Linsitinib = compound: COc1ncc(-c2ccc3nccc(-c4ccnnc4)c3c2)cc1NS(=O)(=O)c1ccc(F)cc1F [Omipalisib] + C[C@]1(O)C[C@@H](c2nc(-c3ccc4ccc(-c5ccccc5)nc4c3)c3c(N)nccn32)C1 [Linsitinib] (partner 1 µM)
Method in brief: as §1

Omipalisib + Palbociclib = compound: COc1ncc(-c2ccc3nccc(-c4ccnnc4)c3c2)cc1NS(=O)(=O)c1ccc(F)cc1F [Omipalisib] + CC(=O)c1c(C)c2cnc(Nc3ccc(N4CCNCC4)cn3)nc2n(C2CCCC2)c1=O [Palbociclib] (partner 0.5 µM)
Method in brief: as §1

Omipalisib + Foretinib = compound: COc1ncc(-c2ccc3nccc(-c4ccnnc4)c3c2)cc1NS(=O)(=O)c1ccc(F)cc1F [Omipalisib] + COc1cc2c(Oc3ccc(NC(=O)C4(C(=O)Nc5ccc(F)cc5)CC4)cc3F)ccnc2cc1OCCCN1CCOCC1 [Foretinib] (partner 0.25 µM)
Method in brief: as §1

Omipalisib + Pemetrexed = compound: COc1ncc(-c2ccc3nccc(-c4ccnnc4)c3c2)cc1NS(=O)(=O)c1ccc(F)cc1F [Omipalisib] + Nc1nc2[nH]cc(CCc3ccc(C(=O)N[C@@H](CCC(=O)O)C(=O)O)cc3)c2c(=O)[nH]1 [Pemetrexed] (partner 0.2 µM)
Method in brief: as §1

Omipalisib + Pictilisib = compound: COc1ncc(-c2ccc3nccc(-c4ccnnc4)c3c2)cc1NS(=O)(=O)c1ccc(F)cc1F [Omipalisib] + CS(=O)(=O)N1CCN(Cc2cc3nc(-c4cccc5[nH]ncc45)nc(N4CCOCC4)c3s2)CC1 [Pictilisib] (partner 1 µM)
Method in brief: as §1

| Cell Line | relative viability (Omipalisib + Navitoclax; first compound 0.0003 µM) | relative viability (Omipalisib + Navitoclax; first compound 0.003 µM) | relative viability (Omipalisib + Navitoclax; first compound 0.03 µM) | relative viability (Omipalisib + Linsitinib; first compound 0.0003 µM) | relative viability (Omipalisib + Linsitinib; first compound 0.003 µM) | relative viability (Omipalisib + Linsitinib; first compound 0.03 µM) | relative viability (Omipalisib + Palbociclib; first compound 0.0003 µM) | relative viability (Omipalisib + Palbociclib; first compound 0.003 µM) | relative viability (Omipalisib + Palbociclib; first compound 0.03 µM) | relative viability (Omipalisib + Foretinib; first compound 0.0003 µM) | relative viability (Omipalisib + Foretinib; first compound 0.003 µM) | relative viability (Omipalisib + Foretinib; first compound 0.03 µM) | relative viability (Omipalisib + Pemetrexed; first compound 0.0003 µM) | relative viability (Omipalisib + Pemetrexed; first compound 0.003 µM) | relative viability (Omipalisib + Pemetrexed; first compound 0.03 µM) | relative viability (Omipalisib + Pictilisib; first compound 0.0003 µM) | relative viability (Omipalisib + Pictilisib; first compound 0.003 µM) | relative viability (Omipalisib + Pictilisib; first compound 0.03 µM) |
| --- | --- | --- | --- | --- | --- | --- | --- | --- | --- | --- | --- | --- | --- | --- | --- | --- | --- | --- |
| HCC-827 | 0.979 | 0.97 | 0.651 | 0.911 | 0.922 | 0.387 | 0.471 | 0.381 | 0.266 | 1.03 | 0.803 | 0.288 | 0.242 | 0.282 | 0.191 | 0.864 | 0.974 | 0.533 |
| HOP-62 | 1.1 | 1.19 | 0.81 | 1.11 | 0.779 | 0.559 | 0.468 | 0.426 | 0.292 | 1.09 | 1.1 | 0.946 | 0.286 | 0.354 | 0.302 | 0.745 | 0.538 | 0.595 |
| LC-2-ad | 0.531 | 0.309 | 0.105 | 0.848 | 0.587 | 0.314 | 0.488 | 0.458 | 0.299 | 0.961 | 0.743 | 0.411 | 0.279 | 0.26 | 0.275 | 0.517 | 0.582 | 0.238 |
| LCLC-97TM1 | 0.503 | 0.149 | 0.164 | 0.172 | 0.135 | 0.134 | 0.202 | 0.14 | 0.0751 | 0.934 | 0.468 | 0.189 | 0.191 | 0.146 | 0.14 | 0.181 | 0.15 | 0.166 |
| LCLC-103H | – | – | – | 1.17 | 1.08 | 0.428 | 0.481 | 0.479 | 0.356 | 0.676 | 0.418 | 0.236 | 0.503 | 0.411 | 0.405 | 0.615 | 0.665 | 0.531 |
| LK-2 | 0.595 | 0.285 | 0.343 | 0.439 | 0.412 | 0.331 | 0.421 | 0.203 | 0.225 | 0.832 | 0.553 | 0.484 | 0.253 | 0.211 | 0.16 | 0.446 | 0.306 | 0.445 |
| LOU-NH91 | 0.635 | 0.585 | 0.346 | 0.876 | 0.717 | 0.512 | 0.586 | 0.536 | 0.52 | 0.901 | 0.838 | 0.564 | 0.408 | 0.431 | 0.448 | 0.511 | 0.487 | 0.441 |
| LU99A | 0.5 | 0.512 | 0.293 | 0.484 | 0.382 | 0.261 | 0.396 | 0.24 | 0.183 | 0.718 | 0.464 | 0.327 | 0.186 | 0.192 | 0.191 | 0.303 | 0.242 | 0.265 |
| LXF-289 | 0.947 | 1 | 0.739 | 0.961 | 1 | 0.793 | 0.62 | 0.574 | 0.416 | 0.977 | 0.912 | 0.626 | 0.938 | 1.05 | 0.804 | 0.772 | 0.684 | 0.671 |
| NCI-H358 | – | – | – | 0.639 | 0.457 | 0.289 | 0.148 | 0.139 | 0.131 | 0.626 | 0.591 | 0.371 | 0.182 | 0.164 | 0.131 | 0.285 | 0.272 | 0.278 |
| NCI-H596 | 0.849 | 0.519 | 0.174 | 0.817 | 0.517 | 0.355 | – | – | – | 0.559 | 0.485 | 0.304 | 0.497 | 0.586 | 0.407 | 0.43 | 0.386 | 0.412 |
| NCI-H650 | – | – | – | 0.76 | 0.689 | 0.47 | 0.297 | 0.275 | 0.222 | 1.04 | 0.877 | 0.613 | 0.903 | 0.634 | 0.453 | 0.867 | 0.762 | 0.631 |
| NCI-H661 | – | – | – | 0.389 | 0.439 | 0.234 | 0.403 | 0.363 | 0.313 | 1.06 | 0.999 | 0.783 | 0.925 | 0.9 | 0.761 | 0.567 | 0.37 | 0.365 |
| NCI-H727 | 0.458 | 0.229 | 0.152 | 0.276 | 0.245 | 0.234 | 0.644 | 0.487 | 0.552 | 0.937 | 0.609 | 0.421 | – | – | – | 0.321 | 0.361 | 0.231 |
| NCI-H1650 | 1.18 | 1.05 | 0.409 | – | – | – | 0.274 | 0.29 | 0.261 | 1.19 | 0.968 | 0.656 | 0.37 | 0.38 | 0.322 | 0.401 | 0.556 | 0.564 |
| NCI-H1792 | 0.583 | 0.515 | 0.235 | 0.417 | 0.441 | 0.164 | 0.636 | 0.424 | 0.27 | – | – | – | 0.835 | 0.319 | 0.103 | 0.281 | 0.278 | 0.129 |
| NCI-H2170 | 0.414 | 0.28 | 0.222 | – | – | – | 0.301 | 0.236 | 0.173 | 0.945 | 0.565 | 0.565 | 0.26 | 0.262 | 0.253 | 0.3 | 0.137 | 0.278 |
| NCI-H2342 | – | – | – | – | – | – | 0.459 | 0.442 | 0.406 | 0.816 | 0.688 | 0.453 | 0.69 | 0.568 | 0.451 | – | – | – |
| SW 900 | – | – | – | – | – | – | 0.522 | 0.444 | 0.278 | 0.888 | 0.691 | 0.622 | 0.508 | 0.456 | 0.487 | – | – | – |
